This note sets out measurements from patent publication EP4428121A1, “MODULATORS OF SORTILIN ACTIVITY” (Vesper Bio Aps, priority 2023, dated 2024).

The Kd is a measure of binding affinity in units of concentration. A high value points to weaker binding. One may read the IC50 as the concentration that inhibits the measured activity by half. A lower IC50 goes with higher potency.

Structures are written as SMILES.

In one test the target is T1, Human (6-His)Sortilin (Homo sapiens, UniProt Q99523).
T1 construct: purchased RnD Systems
T1 sequence (Q99523 78-755 limits assumed): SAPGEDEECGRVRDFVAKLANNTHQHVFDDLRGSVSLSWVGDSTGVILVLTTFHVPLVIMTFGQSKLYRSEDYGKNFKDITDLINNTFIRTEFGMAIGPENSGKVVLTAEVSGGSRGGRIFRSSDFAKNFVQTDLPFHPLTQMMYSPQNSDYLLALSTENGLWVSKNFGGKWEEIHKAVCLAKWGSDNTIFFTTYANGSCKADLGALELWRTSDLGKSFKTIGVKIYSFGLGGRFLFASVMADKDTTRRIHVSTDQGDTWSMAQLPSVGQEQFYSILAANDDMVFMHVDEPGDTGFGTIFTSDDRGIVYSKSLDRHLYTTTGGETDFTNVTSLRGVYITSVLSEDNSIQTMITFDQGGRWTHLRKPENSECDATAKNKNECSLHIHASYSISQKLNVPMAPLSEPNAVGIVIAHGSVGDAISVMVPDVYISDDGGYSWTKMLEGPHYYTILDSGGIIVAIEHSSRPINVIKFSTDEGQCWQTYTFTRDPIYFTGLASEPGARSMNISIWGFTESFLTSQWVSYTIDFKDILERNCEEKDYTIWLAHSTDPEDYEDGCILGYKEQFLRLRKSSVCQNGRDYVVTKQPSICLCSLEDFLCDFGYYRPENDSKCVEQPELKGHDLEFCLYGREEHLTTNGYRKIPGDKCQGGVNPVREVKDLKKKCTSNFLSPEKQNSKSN
Nature of the test: Human Sortilin GCI (Grating-Coupled Interferometry) binding assay. The conditions noted are these: Creoptix WAVE-RAPID, single concentration (usually 1 µM, 10 µM or 100 µM), immobilised Human (6-His)Sortilin, 1:1 kinetic binding model.

The next test has as its target T2, h-Sortilin (Homo sapiens, UniProt Q99523).
T2 sequence (Q99523 78-831): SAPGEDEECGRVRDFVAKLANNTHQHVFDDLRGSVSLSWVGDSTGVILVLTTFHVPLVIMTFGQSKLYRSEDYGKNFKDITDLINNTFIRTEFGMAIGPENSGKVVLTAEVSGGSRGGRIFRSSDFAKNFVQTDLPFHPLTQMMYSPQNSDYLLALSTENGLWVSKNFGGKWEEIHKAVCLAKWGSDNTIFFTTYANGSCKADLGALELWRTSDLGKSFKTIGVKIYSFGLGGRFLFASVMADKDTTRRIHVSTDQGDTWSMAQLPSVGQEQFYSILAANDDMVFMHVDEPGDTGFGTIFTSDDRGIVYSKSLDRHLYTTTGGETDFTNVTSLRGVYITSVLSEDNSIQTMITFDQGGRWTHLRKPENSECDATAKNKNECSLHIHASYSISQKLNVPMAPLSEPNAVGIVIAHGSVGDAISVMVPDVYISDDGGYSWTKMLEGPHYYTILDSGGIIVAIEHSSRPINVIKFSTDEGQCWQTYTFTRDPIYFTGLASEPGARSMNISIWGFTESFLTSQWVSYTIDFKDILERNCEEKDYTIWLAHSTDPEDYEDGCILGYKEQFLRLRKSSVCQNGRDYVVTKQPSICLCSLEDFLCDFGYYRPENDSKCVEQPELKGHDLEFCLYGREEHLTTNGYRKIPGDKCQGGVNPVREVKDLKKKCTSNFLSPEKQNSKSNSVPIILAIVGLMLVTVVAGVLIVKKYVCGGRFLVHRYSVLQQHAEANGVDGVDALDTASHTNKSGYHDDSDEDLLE
Nature of the test: Neurotensin scintillation proximity assay (SPA). The settings on record: displacement of [3H]-neurotensin binding to h-Sortilin; 150 nM 6his-Sortilin, 5 nM [3H]-Neurotensin; average of at least 2 determinations. The procedure: NTS, which is a 13 amino acid neuropeptide, is a sortilin ligand.
Compound affinity was determined by measuring the displacement of [^3H]-neurotensin binding to h-Sortilin in SPA format. Total volume of 40 µl in 50 mM HEPES pH 7.4 assay buffer containing 100 mM NaCl, 2.0 mM CaCl2, 0.1% BSA and 0.1% Tween-20. Compound pre-incubation for 30 minutes at room temperature with 150 nM of 6his-Sortilin before 5 nM [3H]-Neurotensin and Ni chelate imaging beads (Perkin Elmer) were added, after 6 hours the plate was read on a ViewLux with 360 s exposure time. Dose-response evaluation of compounds was performed with 8 concentrations of drugs (covering 3 decades). IC50 values were calculated by nonlinear regression using the sigmoid concentration-response (variable slope) using CDD Vault software. All values reported are average of at least 2 determinations.
(In a scintillation proximity assay essentially only radioactivity close to the scintillant gives light.)

`CC(C)(C)CC[C@H](Nc1cncnc1)C(=O)O` [Example 6, (S)-5,5-dimethyl-2-(5-pyrimidinylamino)hexanoic acid] yielded a Kd on Human (6-His)Sortilin of 4050 nM. For the same molecule, on h-Sortilin, the IC50 amounted to 1240 nM.

On Human (6-His)Sortilin, `CC(C)(C)CC[C@H](Nc1ncnc2ccccc12)C(=O)O` [Example 8, (S)-5,5-dimethyl-2-(4-quinazolinylamino)hexanoic acid] returned a Kd of 116 nM. Moreover, on h-Sortilin, the IC50 was determined as 325 nM. The matching figures for `CC(C)(C)CCC(Nc1cccnc1)c1nn[nH]n1` (racemic) [Example 69, N-3-pyridyl[4,4-dimethyl-1-(2H-tetraazol-5-yl)pentyl]amine]: 1800 nM and 10000 nM. In the same order, the values of `Cc1cccc2c(N[C@@H](CCC(C)(C)C)C(=O)O)ncnc12` [Example 26, (S)-5,5-dimethyl-2-(8-methyl-4-quinazolinylamino)hexanoic acid] are 54.1 nM and 1830 nM. In the same order, the values of `CC(C)(C)CC[C@H](Nc1ccccn1)C(=O)O` [Example 2, (S)-5,5-dimethyl-2-(2-pyridylamino)hexanoic acid] are 2230 nM and 2200 nM. At Human (6-His)Sortilin, `Cc1nccc(N[C@@H](CCC(C)(C)C)C(=O)O)n1` [Example 23, (S)-5,5-dimethyl-2-(2-methyl-4-pyrimidinylamino)hexanoic acid] showed a Kd of 108 nM. On h-Sortilin, this molecule returned an IC50 of 1310 nM. In the same order, the values of `CC(C)(C)CCC(Nc1ccccn1)c1nn[nH]n1` (racemic) [Example 68, N-2-pyridyl[4,4-dimethyl-1-(2H-tetraazol-5-yl)pentyl]amine] are 7570 nM and 10000 nM. The matching figures for `Cc1cc(N[C@@H](CCC(C)(C)C)C(=O)O)ncn1` [Example 24, (S)-5,5-dimethyl-2-(6-methyl-4-pyrimidinylamino)hexanoic acid]: 429 nM and 2870 nM. In the same order, the values of `CC(C)(C)CC[C@H](Nc1ncccn1)C(=O)O` [Example 5, (S)-5,5-dimethyl-2-(2-pyrimidinylamino)hexanoic acid] are 13200 nM and 1190 nM. The molecule `CC(C)(C)CC[C@H](Nc1ccncn1)C(=O)O` [Example 7, (S)-5,5-dimethyl-2-(4-pyrimidinylamino)hexanoic acid] showed a Kd on Human (6-His)Sortilin of 8280 nM. This molecule also gave an IC50 at h-Sortilin of 1140 nM.

As for `CC(C)(C)CC[C@H](Nc1cncc(Oc2ccccc2)n1)C(=O)O` [Example 28, (S)-5,5-dimethyl-2-(6-phenoxy-2-pyrazinylamino)hexanoic acid], binding on Human (6-His)Sortilin was characterised by a dissociation constant (Kd) of 525 nM. The same molecule gave an IC50 on h-Sortilin of 670 nM. In the same order, the values of `CC(C)(C)CC[C@H](Nc1cccnc1)C(=O)O` [Example 31, (S)-5,5-dimethyl-2-(3-pyridylamino)hexanoic acid] are 1710 nM and 1810 nM.

Regarding `CC(C)(C)CC(Nc1ccccn1)c1nn[nH]n1` (racemic) [Example 61, N-2-pyridyl[3,3-dimethyl-1-(2H-tetraazol-5-yl)butyl]amine], at Human (6-His)Sortilin, the Kd came to 60000 nM. `CC(C)CCC(Nc1ncnc2ccc(F)cc12)c1nn[nH]n1` (racemic) [Example 81, [4-methyl-1-(2H-tetraazol-5-yl)pentyl](6-fluoro-4-quinazolinyl)amine] came in with a Kd on Human (6-His)Sortilin of 2220 nM. Same read-out and setting: the value for `CC(C)(C)CCC(Nc1cccc2ccccc12)c1nn[nH]n1` (racemic) [Example 35, [4,4-dimethyl-1-(2H-tetraazol-5-yl)pentyl]-1-naphthylamine] was 1070 nM. Turning to `Cc1cncc(N[C@@H](CCC(C)(C)C)C(=O)O)n1` [Example 27, (S)-5,5-dimethyl-2-(6-methyl-2-pyrazinylamino)hexanoic acid], on Human (6-His)Sortilin, the Kd was found to be 664 nM. The same molecule yielded an IC50 at h-Sortilin of 510 nM.

`CC(C)(C)CCC(Nc1ncnc2cnccc12)c1nn[nH]n1` (racemic) [Example 88, [4,4-dimethyl-1-(2H-tetraazol-5-yl)pentyl]-1,3,7-triaza-4-naphthylamine] had a Kd at Human (6-His)Sortilin of 426 nM. Consider `COc1ccc2ncnc(NC(CCC(C)C)c3nn[nH]n3)c2c1` (racemic) [Example 79, [4-methyl-1-(2H-tetraazol-5-yl)pentyl](6-methoxy-4-quinazolinyl)amine], for which, on Human (6-His)Sortilin, the Kd was found to be 19500 nM. Against the preceding molecule, the Kd is about 46-fold higher. With `Cc1cc(N[C@@H](CCC(C)(C)C)C(=O)O)nc(C)n1` [Example 25, (S)-2-(2,6-dimethyl-4-pyrimidinylamino)-5,5-dimethylhexanoic acid], binding at Human (6-His)Sortilin was put at a Kd of 499 nM. The same molecule yielded an IC50 at h-Sortilin of 1560 nM.

For `COc1ccc2ncnc(NC(CCC(C)(C)C)c3nn[nH]n3)c2c1` (racemic) [Example 78, [4,4-dimethyl-1-(2H-tetraazol-5-yl)pentyl](6-methoxy-4-quinazolinyl)amine], on Human (6-His)Sortilin, the affinity, expressed as Kd, was 1490 nM. `CC(C)(C)CC[C@H](Nc1cnccn1)C(=O)O` [Example 4, (S)-5,5-dimethyl-2-(2-pyrazinylamino)hexanoic acid] came in with a Kd on Human (6-His)Sortilin of 5570 nM. Moreover, the half-inhibitory concentration (IC50) on h-Sortilin turned out to be 1080 nM. Molecule `CC(C)(C)CC(Nc1ncccn1)c1nn[nH]n1` (racemic) [Example 45, N-2-pyrimidinyl[3,3-dimethyl-1-(2H-tetraazol-5-yl)butyl]amine] came in with a Kd at Human (6-His)Sortilin of 91100 nM. This lies in the double-digit micromolar range. On the same count and under the same terms, in the case of `CC(C)(C)CCC(Nc1cnc2ccccc2c1)c1nn[nH]n1` (racemic) [Example 33, [4,4-dimethyl-1-(2H-tetraazol-5-yl)pentyl]-3-quinolylamine] it was 3430 nM. The same measure, in the same setting: in the case of `CC(C)(C)CC(Nc1ncnc2ccccc12)c1nn[nH]n1` (racemic) [Example 77, [3,3-dimethyl-1-(2H-tetraazol-5-yl)butyl]-4-quinazolinylamine] it was 5410 nM; in that of `CC(C)(C)CCC(Nc1ncnc2cc(F)ccc12)c1nn[nH]n1` (racemic) [Example 82, [4,4-dimethyl-1-(2H-tetraazol-5-yl)pentyl](7-fluoro-4-quinazolinyl)amine], 316 nM.
